In patent US20120028917A1, “Use Of N-(4-((3-(2-Amino-4-Pyrimidinyl)-2-Pyridinyl)Oxy)Phenyl)-4-(4-Methyl-2-Thienyl)-1-Phthalazinamine In The Treatment Of Antimitotic Agent Resistant Cancer” (Amgen Inc., priority 2009, published 2012):
Marks after values point to notes of the source that are not given here.

Tests used:
[1] = test system: three matched taxol-resistant and -sensitive tumor cell lines; assay: Matched taxol-resistant and -sensitive tumor cell lines (summary); type: cell-based; details: Homo sapiens; all three matched taxol-resistant and -sensitive tumor cell lines
Experimental: MES-SA Dx5 and MES-SA cells were plated at a density of 10,000 cells/well onto 96-well plate in complete media and cultured for 24 hours. […] Cells were washed and fixed by adding 100 μL of 2× formaldehyde fixation buffer for 10 minutes and room temperature. […] Cells were immunostained with p-histone H3 antibody (5 μg/mL) and incubated at room temperature for 2 hours. Cells were washed in 100 μL of wash buffer. Next, cells were incubated with a goat anti-rabbit alexa-488 conjugated antibody (1.5 μg/mL) in wash buffer supplemented with Hoechest DNA dye (1 μg/mL) and incubated at room temperature in the dark for 30 minutes. Cells were washed twice with 100 μL of wash buffer. The 96-well plates were analyzed on an ArrayScan VTi (Cellomics) using a bioapplication algorithm (TargetActivation.V2). […] NCI-H460 parental and NCI-H460 taxol-resistant cells were seeded at a density of 500,000 cells/well in a 6-well plate in 2 mL of appropriate complete media. The next day cells were treated with AMG 900 or taxol over a 6-point concentration range with a final DMSO concentration of 0.05% in media. After 24 hours, cells were pulsed with BrdU (1:100 dilution) and harvested. […] Data was acquired and analyzed by flow cytomety (LSRII). […] The +4N (same as ≧4N) DNA content or SubG1 cellular EC50 values were calculated using a 4-parameter equation. […] Data was acquired and analyzed by flow cytometry (LSRII). […]

SNU499 = assay: Cellular EC50, additional cell lines (Table 6-B); type: cell-based; details: Homo sapiens, Liver, P-gp+
Experimental: (§1) All high-content cell assays were performed on an ArrayScan VTi HCS Reader (Cellomics). Tumor cell lines were treated with AMG 900, AZD1152, MK-0457, or PHA-739358 (concentration range varied based on potency). The cells were prepared for intracellular staining with an anti-p-histone H3 Ser^10 antibody as previously described (1). Detection was performed with an anti-rabbit IgG-alexa-568 antibody and DAPI. The cellular levels of p-histone H3 were analyzed using Target Activation V2 algorithm (Cellomics) to determine the percentage of positive cells. For the imaging assays, the concentration-response curves and corresponding IC50 and EC50 values were calculated using the percentage of cells affected versus the DMSO control.
(§2) Tumor cells were treated with AMG 900, AZD1152, MK-0457, or PHA-739358 (range concentration varied based on potency) for 24 hours and processed for cell-cycle analysis (DNA staining only) as previously described (1). Cells were analyzed on a LSRII flow cytometer using BD FACS Diva software. The concentration-response curves and corresponding EC50 values were calculated using the percentage of cells with ≧4N DNA content versus the DMSO control.

769P = assay: Cellular EC50, additional cell lines (Table 6-B); type: cell-based; details: Homo sapiens, Kidney, P-gp+
Experimental: as §1, §2

HCT116 xenograft = assay: Xenograft tumor growth inhibition (Example 7); type: in vivo, mice; details: HCT116, Colon; oral 15 mg/kg b.i.d. 2 consecutive days per week or 3 mg/kg b.i.d. every day, 3 weeks
Experimental: Mice were injected subcutaneously with 2×10^6 human HCT 116 colon tumor cells. When tumors were established (approximately 200 mm^3), mice were randomized into experimental treatment groups (n=10) and treated orally with AMG 900 at 1.5, 2.25 or 3 mg/kg everyday or, 3.75, 7.5 or 15 mg/kg intermittently for the duration of the experiment. Mice were provided nutritional supplements on a daily basis. Tumor volumes and body weights were recorded twice per week using caliper and analytical digital scale, respectfully. Tumor data were represented by mean tumor volume +/−SEM. Statistical significance for tumor growth inhibition was determined by repeated measurements ANOVA (RMANOVA) followed by Scheffe post-hoc analysis.
The in-vivo effect of AMG 900 on tumor growth was further evaluated in a panel of human xenografts from five different tumor types (breast, colon, lung, pancreatic, and uterine), including three MDR xenograft models. Mice bearing established tumors were orally administered AMG 900 at 15 mg/kg b.i.d. for 2 consecutive days per week for 3 weeks or at 3 mg/kg b.i.d. every day for 3 weeks. The maximum percentage of tumor growth inhibition (TGI) is reported, in Table 7 below, for each xenograft model. The percentage of TGI was calculated as the difference between the change in vehicle-treated control and AMG 900-treated tumor volumes during the study period.

- EC50 [1]: < 2 nM
- EC50 (SNU499): 2 nM
- EC50 (769P): 4 nM
SMILES: Cc1csc(-c2nnc(Nc3ccc(Oc4ncccc4-c4ccnc(N)n4)cc3)c3ccccc23)c1 [AMG 900, N-(4-((3-(2-amino-4-pyrimidinyl)-2-pyridinyl)oxy)phenyl)-4-(4-methyl-2-thienyl)-1-phthalazinamine]
- Maximum TGI (%) (HCT116 xenograft): 85** %
